{"source": "patent US5502068A", "about": "“Cyclopropylpyrroloindole-oligopeptide anticancer agents” (Synphar Laboratories, Inc., priority 1995, dated 1996)", "key": {"[1]": {"tested_on": "KB human nasopharyngeal carcinoma cells", "test": "Cytotoxicity (antiproliferative effect), crystal violet staining", "assay_type": "cell-based", "conditions": "for IC50: Homo sapiens, KB, 72 h", "procedure": "KB human nasopharyngeal carcinoma cells, were maintained in RPMI 1640 medium supplemented with 10% fetal bovine serum. KB cells were cultured in plastic tissue culture flasks and kept in an incubator at 37° C. in humidified air containing 5% CO2. These cells were free of Mycoplasma as determined with Hoechst 33258 stain.\nThe antiproliferative effect of compounds was determined using cell staining method by crystal violet.\nOne hundred-μ1 cultures were established at 10^3 cells/well in 96-well tissue culture plates (Nunc, Roskilde, Denmark). After 24 h. 100 µl of the medium containing 2 times concentrated the compounds were added to the cell culture. After an additional 3 days culture, cells were fixed to 20 µl of 25% glutaraldehyde for 15 minutes and washed with water, dried and stained with 0.05% crystal violet in 20% methanol for 15 minutes. After washing with water and drying, crystal violet was extracted with 100 µl of 50 mM NaH2 PO4 /ethanol (1:1 v/v) and OD540 was measured by the multiscanphotometer (Corona, Tokyo, Japan). A linear relationship between cell number and the amount of dye binding was found over the range of cell densities observed all experiments."}, "[2]": {"tested_on": "P388 lymphocytic leukemia cells", "test": "Antitumor efficacy, i.p. P388 lymphocytic leukemia in CDF1 mice", "assay_type": "in vivo, mouse", "conditions": "0.3 mg/kg ip", "procedure": "All compounds were dissolved in dimethyl sulfoxide (DMSO), diluted in sterile 0.9% NaCl solution to 5% final DMSO concentration. BALB/c X DBA/2F1 (CDF1) mice were purchased from Japan CLEA. P388 lymphocytic leukemia cells were inoculated intraperitoneally (10^6 cells) 1 day prior to treatment into 6 week-old male CDF1 mice, and compounds were injected intraperitoneally in a total volume of 0.1 ml/10g mouse body weight. Efficacy for these models was expressed as the Increase in life span (ILS) of treated mice in comparison to untreated tumor-bearing mice. Experiment was completed on day 30 after tumor inoculation, and survivor on that day was evaluated as cured animal. Time to death (mean±SD.n=9) for untreated animals was 11.5±1.2 day and for solvent treated animals was 11.7±2.1 day."}, "DNA": {"tested_on": "DNA", "test": "Site and sequence selective DNA alkylation by polyacrylamide gel electrophoresis (PAGE)", "assay_type": "biochemical", "text": "In contrast to FCE 24517, clear evidence of site and sequence selective DNA alkylation was obtained for the new CPI-oligopeptides by polyacrylamide gel electrophoresis (PAGE). […] Table 5 quantifies and compares the alkylation intensities at different sites for the CPI-oligopeptides with CC-1065. […] A detailed analysis of the frequency of occurrence of bases flanking the prominent alkylation sites for YW-052 and YW-053 compared with CC-1065 is given in Table 7."}, "herpes viruses": {"tested_on": "herpes viruses", "conditions": "cited from earlier work"}, "[3]": {"conditions": "in words; cited from earlier work"}, "[4]": {"conditions": "Table 3, KB cells, 3 days, read-out: KB cells, toxicity TD50"}}, "note": "“Also recorded” adds a separate entry of the source. Read-outs that look alike come from different tables or passages of the source.", "data": [{"compound": "CCCC(=O)Nc1cc(C(=O)N2CC3CC34C2=CC(=O)c2[nH]cc(C)c24)n(C)c1", "note": "(centres unmarked) [YW-036]", "values": [{"measurement": "IC50", "setting": "[1]; Table 4, KB cell, read-out: Cytotoxicity IC50 (KB cell)", "result": 0.47, "unit": "ng/mL"}, {"measurement": "In vivo ILS P388 (ip)", "setting": "[2]; maximum ILS, P388 ip, 30 day survivors not included", "result": 24.6, "unit": "%"}, {"measurement": "cure", "setting": "[2]; survivors on day 30 evaluated as cured", "result": "1/7"}]}, {"compound": "CCCC(=O)Nc1cc(C(=O)Nc2cc(C=CC(=O)N3CC4CC45C3=CC(=O)c3[nH]cc(C)c35)n(C)c2)n(C)c1", "note": "(centres unmarked) [YW-053]", "values": [{"measurement": "Frequency of Occurrence, base A at +1", "setting": "DNA; A, position +1", "result": 27, "unit": "%"}, {"measurement": "Frequency of Occurrence, base A at +2", "setting": "DNA; A, position +2", "result": 27, "unit": "%"}, {"measurement": "Frequency of Occurrence, base A at +3", "setting": "DNA; A, position +3", "result": 27, "unit": "%"}, {"measurement": "Frequency of Occurrence, base A at -1", "setting": "DNA; A, position -1", "result": 36, "unit": "%"}, {"measurement": "Frequency of Occurrence, base A at -2", "setting": "DNA; A, position -2", "result": 45, "unit": "%"}, {"measurement": "Frequency of Occurrence, base A at -3", "setting": "DNA; A, position -3", "result": 36, "unit": "%"}, {"measurement": "Frequency of Occurrence, A/T at +1", "setting": "DNA; A/T, position +1", "result": 82, "unit": "%"}, {"measurement": "Frequency of Occurrence, A/T at +2", "setting": "DNA; A/T, position +2", "result": 54, "unit": "%"}, {"measurement": "Frequency of Occurrence, A/T at +3", "setting": "DNA; A/T, position +3", "result": 54, "unit": "%"}, {"measurement": "Frequency of Occurrence, A/T at -1", "setting": "DNA; A/T, position -1", "result": 100, "unit": "%"}, {"measurement": "Frequency of Occurrence, A/T at -2", "setting": "DNA; A/T, position -2", "result": 100, "unit": "%"}, {"measurement": "Frequency of Occurrence, A/T at -3", "setting": "DNA; A/T, position -3", "result": 63, "unit": "%"}, {"measurement": "Frequency of Occurrence, base C at +2", "setting": "DNA; C, position +2", "result": 9, "unit": "%"}, {"measurement": "Frequency of Occurrence, base C at +3", "setting": "DNA; C, position +3", "result": 9, "unit": "%"}, {"measurement": "Frequency of Occurrence, base C at -3", "setting": "DNA; C, position -3", "result": 10, "unit": "%"}, {"measurement": "Frequency of Occurrence, base G at +1", "setting": "DNA; G, position +1", "result": 28, "unit": "%"}, {"measurement": "Frequency of Occurrence, base G at +2", "setting": "DNA; G, position +2", "result": 37, "unit": "%"}, {"measurement": "Frequency of Occurrence, base G at +3", "setting": "DNA; G, position +3", "result": 37, "unit": "%"}, {"measurement": "Frequency of Occurrence, base G at -3", "setting": "DNA; G, position -3", "result": 27, "unit": "%"}, {"measurement": "Frequency of Occurrence, base T at +1", "setting": "DNA; T, position +1", "result": 45, "unit": "%"}, {"measurement": "Frequency of Occurrence, base T at +2", "setting": "DNA; T, position +2", "result": 27, "unit": "%"}, {"measurement": "Frequency of Occurrence, base T at +3", "setting": "DNA; T, position +3", "result": 27, "unit": "%"}, {"measurement": "Frequency of Occurrence, base T at -1", "setting": "DNA; T, position -1", "result": 64, "unit": "%"}, {"measurement": "Frequency of Occurrence, base T at -2", "setting": "DNA; T, position -2", "result": 55, "unit": "%"}, {"measurement": "Frequency of Occurrence, base T at -3", "setting": "DNA; T, position -3", "result": 27, "unit": "%"}, {"measurement": "Frequency of Occurrence, A* (site of alkylation)", "setting": "DNA; alkylated base A*", "result": 91, "unit": "%"}, {"measurement": "Frequency of Occurrence, G* (site of alkylation)", "setting": "DNA; alkylated base G*", "result": 9, "unit": "%"}, {"measurement": "Alkylation Sites (5'-3'), Moderate", "setting": "DNA; moderate sites, listed as YW-53", "result": "TTAA, AATG, GATA; also recorded: ATAA, CTTA, GAAA"}, {"measurement": "Alkylation Sites (5'-3'), Strong", "setting": "DNA; strong sites, listed as YW-53", "result": "TTTA, TATA, GTTA; also recorded: AATA, ATAA"}]}, {"compound": "CC(=O)Nc1cc(C=CC(=O)N2CC3CC34C2=CC(=O)c2[nH]cc(C)c24)n(C)c1", "note": "(centres unmarked) [YW-059]", "values": [{"measurement": "IC50", "setting": "[1]; Table 2, KB cells, 3 days, read-out: KB cells, toxicity TD50", "result": 0.00015, "unit": "ng/mL"}, {"measurement": "cytotoxic potency / anticancer activity in vitro", "setting": "[1]; human tumor KB cell line, in words", "result": "exceeding in the case of YW-059, for example, that of any other reported natural or synthetic agents; also recorded: cytotoxic potency exceeds that of any other agent, natural or synthetic, reported to date"}]}, {"compound": "Cc1c[nH]c2c1C13CC1CN(C(=O)c1cc(NC(=O)CCN(C)C)cn1C)C3=CC2=O", "note": "(centres unmarked) [YW-60]", "values": [{"measurement": "IC50", "setting": "[1]; [4]", "result": 184, "unit": "ng/mL"}]}, {"compound": "Cc1c[nH]c2c1C13CC1CN(C(=O)c1cc(NC(=O)c4cc(NC(=O)CCN(C)C)cn4C)cn1C)C3=CC2=O", "note": "(centres unmarked) [YW-61]", "values": [{"measurement": "IC50", "setting": "[1]; [4]", "result": 2490, "unit": "ng/mL"}]}, {"compound": "Cc1c[nH]c2c1C13CC1CN(C(=O)c1cc(NC(=O)c4cc(NC(=O)c5cc(NC(=O)CCN(C)C)cn5C)cn4C)cn1C)C3=CC2=O", "note": "(centres unmarked) [YW-62]", "values": [{"measurement": "IC50", "setting": "[1]; [4]", "result": 1370, "unit": "ng/mL"}]}, {"compound": "Cc1c[nH]c2c1C13CC1CN(C(=O)c1nc(NC(=O)CCN(C)C)cn1C)C3=CC2=O", "note": "(centres unmarked) [YW-63]", "values": [{"measurement": "IC50", "setting": "[1]; [4]", "result": 385, "unit": "ng/mL"}]}, {"compound": "Cc1c[nH]c2c1C13CC1CN(C(=O)c1nc(NC(=O)c4nc(NC(=O)CCN(C)C)cn4C)cn1C)C3=CC2=O", "note": "(centres unmarked) [YW-64]", "values": [{"measurement": "IC50", "setting": "[1]; [4]", "result": 2520, "unit": "ng/mL"}]}, {"compound": "Cn1cc(NC(=O)c2cc(NC(=O)c3cc(NC=O)cn3C)cn2C)cc1C(=O)NCCC(=N)N", "note": "[distamycin]", "values": [{"measurement": "therapeutic index", "setting": "herpes viruses", "result": "about 3"}, {"measurement": "cytotoxicity", "setting": "[3]", "result": "high cytotoxicity"}]}]}
